This is an account of results in the NIST ThermoML archive (doi:10.1016/j.jct.2014.12.001).

Each structure is given as a SMILES string. Numbers after ± are expanded uncertainties.

The conditions of the series: 100 kPa, Liquid, Parallel plate method.

`OCCO` [1,2-ethanediol]: the thermal conductivity (283.15 K) worked out at 0.239 ± 0.02 W/m/K, the thermal conductivity (303.15 K) is on record as 0.248 ± 0.02 W/m/K, the thermal conductivity (323.15 K) was determined as 0.257 ± 0.02 W/m/K and the thermal conductivity (343.15 K) was found to be 0.266 ± 0.02 W/m/K.

With `CC(O)CO` (stereo not drawn) [1,2-propanediol], the thermal conductivity reads like this: (283.15 K) 0.206 ± 0.02 W/m/K; (303.15 K) 0.207 ± 0.02 W/m/K; (323.15 K) 0.206 ± 0.02 W/m/K; (343.15 K) 0.207 ± 0.02 W/m/K.
